Measured values reported in paper PMC6887663 (Pharmacology Research & Perspectives, 2019).

Key:
[1] = tested on: moderate‐to‐severe psoriasis; conditions: phase III trial (BRIDGE); both P < .001; cited from earlier work
[2] = pH conditions and gut esterases; cited from earlier work
[3] = molecular target: T1, P‐gp (Homo sapiens, UniProt P08183); experiment: P-gp inhibition, [3H]digoxin efflux in MDCKII-MDR1 and MDCKII-WT cells; conditions: for % Control relative to 0 mmol/L MMF: MDCKII cells, [^3H]digoxin net efflux ratio
[4] = tested on: CYP3A4/5; experiment: CYP3A4/5 inhibition in human liver microsomes; assay type: biochemical; conditions: for IC50 at 10 min / inhibition at 10 min, 666 μmol/L: human, human liver microsomes; for inhibition at 10 min, 666 μmol/L: probe testosterone, Inhibition of formation of 6β‐hydroxytestosterone, Mean, testosterone
[5] = molecular target: T1, P‐gp; experiment: P-gp inhibition, [3H]digoxin efflux in Caco-2 cells; conditions: for % Control relative to 0 mmol/L MMF: Caco‐2 cells, [^3H]digoxin efflux ratio
[6] = Preliminary metabolic stability in HLM; assay type: in vitro ADME, human; conditions: with and without cofactor, 37°C, 0-40 minutes, MMF at 750 μmol/L
[7] = molecular target: CYP2D6 (Homo sapiens, UniProt P10635); experiment: CYP2D6 inhibition in human liver microsomes; assay type: biochemical
[8] = tested on: CYP3A4 mRNA; experiment: CYP3A4 mRNA induction in cultured human hepatocytes; assay type: cell-based
[9] = molecular target: T2, CYP2C8 (Homo sapiens, UniProt P10632); experiment: CYP2C8 inhibition in human liver microsomes; assay type: biochemical
T2 sequence (P10632 1-490): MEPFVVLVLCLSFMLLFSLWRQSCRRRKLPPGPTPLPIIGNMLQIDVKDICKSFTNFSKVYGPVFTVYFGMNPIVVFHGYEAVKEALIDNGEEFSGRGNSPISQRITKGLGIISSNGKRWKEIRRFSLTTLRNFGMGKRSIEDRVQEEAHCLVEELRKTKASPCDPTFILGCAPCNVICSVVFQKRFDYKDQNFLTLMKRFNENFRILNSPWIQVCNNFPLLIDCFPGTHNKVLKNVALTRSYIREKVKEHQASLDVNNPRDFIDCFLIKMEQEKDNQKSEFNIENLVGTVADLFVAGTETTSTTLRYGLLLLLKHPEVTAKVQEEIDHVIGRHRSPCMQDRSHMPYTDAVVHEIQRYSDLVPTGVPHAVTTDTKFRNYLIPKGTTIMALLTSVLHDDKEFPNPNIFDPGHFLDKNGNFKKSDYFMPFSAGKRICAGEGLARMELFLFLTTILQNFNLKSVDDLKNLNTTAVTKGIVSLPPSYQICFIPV

[10] = MMF concentration in incubation medium; assay type: in vitro ADME; conditions: no‐cell control plate; after 24 hours’ incubation
[11] = molecular target: T3, CYP1A2 (Homo sapiens, UniProt P05177); experiment: CYP1A2 inhibition in human liver microsomes; assay type: biochemical
T3 sequence (P05177 1-516): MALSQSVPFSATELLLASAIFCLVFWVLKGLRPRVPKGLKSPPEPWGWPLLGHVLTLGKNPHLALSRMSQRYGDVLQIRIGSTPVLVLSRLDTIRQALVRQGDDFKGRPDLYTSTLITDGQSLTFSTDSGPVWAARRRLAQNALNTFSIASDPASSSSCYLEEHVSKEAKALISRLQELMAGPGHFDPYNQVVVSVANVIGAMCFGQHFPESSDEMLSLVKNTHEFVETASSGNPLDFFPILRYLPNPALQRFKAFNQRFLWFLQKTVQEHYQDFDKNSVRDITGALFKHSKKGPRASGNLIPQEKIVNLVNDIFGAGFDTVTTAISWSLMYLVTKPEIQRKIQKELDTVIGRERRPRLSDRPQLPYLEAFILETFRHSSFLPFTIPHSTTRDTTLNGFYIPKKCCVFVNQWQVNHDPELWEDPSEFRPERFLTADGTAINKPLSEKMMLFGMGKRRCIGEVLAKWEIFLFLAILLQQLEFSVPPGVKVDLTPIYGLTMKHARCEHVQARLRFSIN

[12] = Cytotoxicity in cultured human hepatocytes; assay type: cell-based; conditions: human, cryopreserved plated human hepatocytes
[13] = tested on: human hepatocytes; experiment: Cytotoxicity in cultured human hepatocytes; assay type: cell-based; conditions: MMF ≤250 μmol/L; 72‐hour incubation
[14] = read-out: maximum plasma concentration (Cmax) of MMF; for a 240 mg dose; clinically relevant; cited from earlier work
[15] = MMF solubility in supplemented Williams' Medium E; assay type: physicochemical; conditions: MMF up to 750 μmol/L
[16] = Preliminary solubility in potassium phosphate buffer with HLM; assay type: physicochemical; conditions: MMF in solutions of HLM at 0.025 and 0.3 mg/mL
[17] = tested on: CYP1A2 mRNA; experiment: CYP1A2 mRNA induction in cultured human hepatocytes; assay type: cell-based
[18] = molecular target: CYP2C19 (Homo sapiens, UniProt P33261); experiment: CYP2C19 inhibition in human liver microsomes; assay type: biochemical
[19] = molecular target: T1, P‐gp; experiment: P-gp substrate assessment in MDCKII-MDR1 and WT MDCKII cells; assay type: in vitro ADME; conditions: MMF; at 120 minutes; all concentrations investigated
[20] = molecular target: T4, CYP2B6 (Homo sapiens, UniProt P20813); experiment: CYP2B6 inhibition in human liver microsomes; assay type: biochemical
T4 sequence (P20813 1-491): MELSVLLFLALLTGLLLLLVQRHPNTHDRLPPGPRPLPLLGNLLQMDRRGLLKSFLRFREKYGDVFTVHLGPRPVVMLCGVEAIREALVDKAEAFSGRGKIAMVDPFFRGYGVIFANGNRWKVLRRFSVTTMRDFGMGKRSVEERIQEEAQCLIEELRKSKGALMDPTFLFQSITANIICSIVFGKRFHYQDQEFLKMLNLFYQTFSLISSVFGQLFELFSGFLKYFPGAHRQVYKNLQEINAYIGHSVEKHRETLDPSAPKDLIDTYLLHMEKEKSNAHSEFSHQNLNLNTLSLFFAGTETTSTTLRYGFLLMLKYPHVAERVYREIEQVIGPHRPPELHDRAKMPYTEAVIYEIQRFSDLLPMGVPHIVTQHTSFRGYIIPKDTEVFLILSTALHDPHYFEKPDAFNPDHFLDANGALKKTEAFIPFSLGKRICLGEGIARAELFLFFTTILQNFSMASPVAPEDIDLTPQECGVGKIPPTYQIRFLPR

[21] = Permeability across Caco-2 cell monolayers; assay type: in vitro ADME; conditions: human, Caco-2, pH 7.4
[22] = molecular target: CYP2C9 (Homo sapiens, UniProt P11712); experiment: CYP2C9 inhibition in human liver microsomes; assay type: biochemical
[23] = tested on: CYP2B6 mRNA; experiment: CYP2B6 mRNA induction in cultured human hepatocytes; assay type: cell-based

T1 sequence (P08183 whole entry): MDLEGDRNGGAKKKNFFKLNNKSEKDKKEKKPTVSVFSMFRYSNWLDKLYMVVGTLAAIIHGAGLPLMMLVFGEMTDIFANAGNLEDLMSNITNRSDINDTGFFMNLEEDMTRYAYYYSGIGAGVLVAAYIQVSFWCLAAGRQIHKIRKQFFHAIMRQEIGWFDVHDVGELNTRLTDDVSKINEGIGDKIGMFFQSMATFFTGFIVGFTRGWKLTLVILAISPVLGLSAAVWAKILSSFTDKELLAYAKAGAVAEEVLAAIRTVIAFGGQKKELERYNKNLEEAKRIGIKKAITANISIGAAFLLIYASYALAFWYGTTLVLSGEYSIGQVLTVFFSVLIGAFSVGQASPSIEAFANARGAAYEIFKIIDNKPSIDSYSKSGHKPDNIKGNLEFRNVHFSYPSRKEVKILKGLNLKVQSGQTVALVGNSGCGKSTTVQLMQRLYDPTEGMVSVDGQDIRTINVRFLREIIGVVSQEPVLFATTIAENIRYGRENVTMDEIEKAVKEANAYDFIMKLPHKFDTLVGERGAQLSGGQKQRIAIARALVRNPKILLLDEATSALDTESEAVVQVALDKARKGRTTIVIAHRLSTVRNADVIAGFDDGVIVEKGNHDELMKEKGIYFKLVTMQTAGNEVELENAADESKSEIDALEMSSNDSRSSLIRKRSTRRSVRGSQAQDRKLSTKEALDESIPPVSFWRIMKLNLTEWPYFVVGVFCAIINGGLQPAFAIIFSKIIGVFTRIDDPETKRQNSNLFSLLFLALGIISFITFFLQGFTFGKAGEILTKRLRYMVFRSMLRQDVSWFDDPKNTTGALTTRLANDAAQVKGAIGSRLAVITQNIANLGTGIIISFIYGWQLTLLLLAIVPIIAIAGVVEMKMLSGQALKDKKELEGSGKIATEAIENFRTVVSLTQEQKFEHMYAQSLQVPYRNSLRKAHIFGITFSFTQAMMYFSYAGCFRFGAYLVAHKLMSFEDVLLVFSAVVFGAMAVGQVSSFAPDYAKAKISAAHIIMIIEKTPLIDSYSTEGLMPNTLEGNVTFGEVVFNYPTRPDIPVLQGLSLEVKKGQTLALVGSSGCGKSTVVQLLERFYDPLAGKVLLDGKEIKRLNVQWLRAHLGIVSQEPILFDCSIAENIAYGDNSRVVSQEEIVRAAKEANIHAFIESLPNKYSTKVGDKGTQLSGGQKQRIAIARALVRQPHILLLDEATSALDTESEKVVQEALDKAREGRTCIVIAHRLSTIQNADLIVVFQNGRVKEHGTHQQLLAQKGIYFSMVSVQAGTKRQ
Sequence of CYP2C9 (P11712 whole entry): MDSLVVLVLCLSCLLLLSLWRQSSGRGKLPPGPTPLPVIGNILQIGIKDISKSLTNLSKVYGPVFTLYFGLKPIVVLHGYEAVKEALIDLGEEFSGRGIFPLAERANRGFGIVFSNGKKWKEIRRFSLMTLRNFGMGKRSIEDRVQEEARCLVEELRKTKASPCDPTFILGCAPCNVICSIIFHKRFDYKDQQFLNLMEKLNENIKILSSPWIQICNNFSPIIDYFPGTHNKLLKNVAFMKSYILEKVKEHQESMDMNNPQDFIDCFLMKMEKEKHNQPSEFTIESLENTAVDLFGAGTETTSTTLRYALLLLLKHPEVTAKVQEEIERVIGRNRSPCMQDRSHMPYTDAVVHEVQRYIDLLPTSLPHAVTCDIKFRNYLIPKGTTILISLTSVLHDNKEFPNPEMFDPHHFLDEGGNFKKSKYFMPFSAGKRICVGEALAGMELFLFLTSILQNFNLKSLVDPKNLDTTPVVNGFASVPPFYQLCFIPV
Sequence of CYP2C19 (P33261 whole entry): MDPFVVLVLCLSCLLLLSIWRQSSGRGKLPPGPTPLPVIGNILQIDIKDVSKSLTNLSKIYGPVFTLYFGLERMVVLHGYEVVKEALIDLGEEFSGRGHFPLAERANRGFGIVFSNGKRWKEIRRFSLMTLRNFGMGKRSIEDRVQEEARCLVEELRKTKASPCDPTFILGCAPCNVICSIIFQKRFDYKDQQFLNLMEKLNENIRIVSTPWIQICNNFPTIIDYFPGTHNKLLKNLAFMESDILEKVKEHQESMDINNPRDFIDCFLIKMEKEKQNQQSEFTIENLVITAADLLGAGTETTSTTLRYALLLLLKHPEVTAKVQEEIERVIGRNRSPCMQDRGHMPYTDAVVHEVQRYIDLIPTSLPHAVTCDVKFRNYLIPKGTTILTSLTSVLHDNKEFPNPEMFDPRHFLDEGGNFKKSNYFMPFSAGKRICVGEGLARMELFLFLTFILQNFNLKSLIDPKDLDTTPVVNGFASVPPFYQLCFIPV
Sequence of CYP2D6 (P10635 whole entry): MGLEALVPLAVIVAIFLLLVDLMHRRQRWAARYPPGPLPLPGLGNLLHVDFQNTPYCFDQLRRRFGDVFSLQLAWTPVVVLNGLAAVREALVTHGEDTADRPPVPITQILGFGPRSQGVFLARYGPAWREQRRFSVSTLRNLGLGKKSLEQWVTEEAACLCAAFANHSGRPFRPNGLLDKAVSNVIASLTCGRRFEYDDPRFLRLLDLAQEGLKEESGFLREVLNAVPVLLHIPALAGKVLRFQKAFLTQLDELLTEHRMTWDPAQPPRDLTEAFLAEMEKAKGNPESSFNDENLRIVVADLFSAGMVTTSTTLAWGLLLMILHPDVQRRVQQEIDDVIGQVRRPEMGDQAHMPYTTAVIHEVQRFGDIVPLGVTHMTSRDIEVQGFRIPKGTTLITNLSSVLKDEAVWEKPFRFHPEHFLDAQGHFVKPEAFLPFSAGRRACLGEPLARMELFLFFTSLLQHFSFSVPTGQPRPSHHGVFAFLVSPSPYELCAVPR

Compound: COC(=O)/C=C/C(=O)OC [DMF, dimethylfumarate]
- number of patients with PASI 75 at Week 16 [1]: superiority over placebo and noninferiority versus the FAE combination
- hydrolysis half‐life of DMF in the intestine [2]: less than 2 minutes
- IC50 [3]: 900 µM
- Inhibition of formation of 1′‐hydroxymidazolam, Mean ([4]; DMF 666 μmol/L, 30 min PI + cofactor, midazolam, HLM): 8.93%
- IC50 at 10 min [4]: > 666 µM
- inhibition at 10 min, 666 μmol/L ([4]; DMF 666 μmol/L, 0 min PI, HLM): 0%
- inhibition at 10 min, 666 μmol/L ([4]; DMF 666 μmol/L, 30 min PI + cofactor, HLM): 35.5%
- inhibition at 10 min, 666 μmol/L ([4]; DMF 666 μmol/L, 30 min PI – cofactor, HLM): 0%
- IC50 [5]: 1500 µM
- metabolic stability under the incubation conditions [6]: unlikely to be stable

Compound: COC(=O)/C=C/C(=O)O [MMF, monomethylfumarate]
- IC50 [7]: > 750 µM
- fold increase in CYP3A4 mRNA ([8]; 1 µmol/L MMF, donor 2 (XKU), not concentration dependent): > 2 fold
- CYP3A4 mRNA induction, overall ([8]; MMF at concentrations up to 250 μmol/L): no concentration‐dependent increases above 2‐fold
- IC50 [9]: > 750 µM
- MMF still present in medium [10]: over 65%
- IC50 [11]: > 750 µM
- % Control relative to 0 mmol/L MMF ([3]; MMF 0.246 mmol/L): >69.4%
- % Control relative to 0 mmol/L MMF ([3]; MMF 0.738 mmol/L): >88.2%
- % Control relative to 0 mmol/L MMF ([3]; MMF 7.38 mmol/L): >138%
- viability at 72 h, 750 μmol/L [12]: 71.6%
- cytotoxic effects on human hepatocytes [13]: No significant cytotoxic effects
- Cmax [14]: 11.2 µM
- IC50 at 10 min [4]: > 750 µM
- Post‐centrifugation recoveries [15]: ≥ 86.5%
- mean recovery upon centrifugation [16]: > 92.2%
- fold increase in CYP1A2 mRNA ([17]; 250 μmol/L MMF, donor 4): 4.78 fold
- CYP1A2 mRNA induction, overall ([17]; MMF 1‐250 µmol/L, three donors): No concentration‐dependent induction effects
- IC50 [18]: > 750 µM
- decrease of [^3H]digoxin efflux ratio ([5]; 7.38 mmol/L MMF, Caco‐2): approximately 85%
- fold increase of Papp for [^3H]digoxin in the A–B direction ([5]; 7.38 mmol/L MMF, Caco‐2, possibly cytotoxicity): approximately 9 fold
- % Control relative to 0 mmol/L MMF ([5]; MMF 0.0738 mmol/L): 76.9%
- % Control relative to 0 mmol/L MMF ([5]; MMF 0.246 mmol/L): 76.7%
- % Control relative to 0 mmol/L MMF ([5]; MMF 0.738 mmol/L): 99.8%
- % Control relative to 0 mmol/L MMF ([5]; MMF 7.38 mmol/L): 14.5%
- net efflux ratio [19]: < 2
- metabolic stability under the incubation conditions [6]: stable
- IC50 [20]: > 750 µM
- Papp A→B at 120 min [21]: < 2 ×10⁻⁶ cm/s
- IC50 [22]: > 750 µM
- fold increase in CYP2B6 mRNA ([23]; 250 μmol/L MMF, donor 4): 17.6 fold
- CYP2B6 mRNA induction, overall ([23]; MMF 1‐250 µmol/L, three donors): No concentration‐dependent induction effects
